# According to US20240261443A1, “COMPOUNDS AND COMPOSITIONS USEFUL AS RADIOTRACERS FOR IMAGING OF REACTIVE OXIDATIVE SPECIES” (Wake Forest University Health Sciences, priority 2019, published 2024):
# Legend:
# SCC-61 cells = conditions: cited from earlier work
# [1] = test system: SCC-61 and rSCC-61 cell lines; experiment: MitoSOX fluorescence ROS assay, with or without SOD blocker; type: cell-based, human
# Method: As a first-line tool to screen KS1 and KS2: SCC-61 has higher intracellular ROS than rSCC-61. MitoSOX is a mitochondrion-targeted dihydroethidium based derivative that primarily detects ROS (superoxide anion) produced within mitochondria. Mitosox assays without any ligands were used as controls. The two cell lines were treated with KS1, KS2 and ascorbate (10.0 μM) and incubated for an hour. MitoSOX (1.0 μM) in phenol red-free DMEM/F12 media was added and incubated for an additional 10 min. The cells were then washed with PBS and imaged in the same media.
# In addition to testing KS1 with the MitoSOX assay, we compared our results with no ligand controls and ascorbate as a reference standard. The two cell lines were treated with KS1 and ascorbate (10.0 μM) and incubated for an hour. MitoSOX (1.0 μM) in phenol red-free DMEM/F12 media was added and incubated for an additional 10 min. The cells were then washed with PBS and imaged in the same media. Ligand specificity is commonly determined by pretreating the cells with high concentrations of blockers. Superoxide dismutase (SOD), an enzyme that selectively suppresses accumulation of ROS-superoxide peroxide anions, was added as blocker (1.0 mM) 60 min before the treatment of KS1 (Bielski et al., Chemistry of ascorbic acid radicals. in Ascorbic Acid: Chemistry, Metabolism, and Uses. Chapter. 1982; 4:81-100). Fluorescence was subsequently measured and its intensity was quantified in f.u (fluorescence units).
# Ligand specificity is commonly determined by pretreating the cells with high concentrations of blockers. We used superoxide dismutase (SOD), an enzyme that selectively suppresses accumulation of ROS-superoxide peroxide anions (Bielski et al., Chemistry of ascorbic acid radicals. in Ascorbic Acid: Chemistry, Metabolism, and Uses. Chapter 1982, 4, 81-100). The same MitoSOX assay with KS1 and KS2 (10 μM) was performed by pretreating the SCC-61 cells with SOD (1.0 mM) for 60 min.
# PC3 cell line = experiment: MTT cytotoxicity IC50 assay, PC3; type: cell-based, human
# Method: (§1) The cells were seeded at density 5×10^3 cells/well. After 24 h pre-incubation period, cells were treated with 0.01 mM to 2.0 mM of freshly prepared KS1 and KS2 along with ascorbate (n=3) for 48 h. 0.2% of DMSO served as vehicle control. After 48 h, the solutions were removed from all plates and MTT assays performed following the published protocols. IC50 values are presented as mean±SD from at least three independent experiments.
# (§2) There is growing evidence for a therapeutic role of ascorbate against several cancers (Creagan et al., Failure of High-Dose Vitamin C (Ascorbic Acid) Therapy to Benefit Patients with Advanced Cancer. New England Journal of Medicine 1979, 301 (13), 687-690; Chen et al., Pharmacologic ascorbic acid concentrations selectively kill cancer cells: action as a pro-drug to deliver hydrogen peroxide to tissues. Proceedings of the National Academy of Sciences of the United States of America 2005, 102 (38), 13604-13609; Prasad et al., High Doses of Multiple Antioxidant Vitamins: Essential Ingredients in Improving the Efficacy of Standard Cancer Therapy. Journal of the American College of Nutrition 1999, 18 (1), 13-25). Pharmacologic doses of ascorbate (oral and/or intravenous) could increase the effectiveness of cancer chemotherapy in many solid cancer therapies (López-Lizaro, Dual role of hydrogen peroxide in cancer: Possible relevance to cancer chemoprevention and therapy. Cancer Letters 2007, 252 (1), 1-8; Li et al., New Developments and Novel Therapeutic Perspectives for Vitamin C. The Journal of Nutrition 2007, 137 (10), 2171-2184; Klimant et al., Intravenous vitamin C in the supportive care of cancer patients: a review and rational approach. Current Oncology 2018, 25 (2), 139-148. The primary objective of this experiment was to determine the cytotoxic effects of KS1 at pharmacological concentrations. Cancer cell lines were selected based on their high ROS implications. […] These cell lines have been studied extensively with ascorbic acid treatments (Schoenfeld et al., O(2)(·−) and H(2)O(2)-Mediated Disruption of Fe Metabolism Causes the Differential Susceptibility of NSCLC and GBM Cancer Cells to Pharmacological Ascorbate. Cancer Cell 2017, 31 (4), 487-500.e8; Chen et al., Modulators of Redox Metabolism in Head and Neck Cancer. Antioxidants & Redox Signaling 2017, 29 (16), 1660-1690; Khandrika et al., Oxidative stress in prostate cancer. Cancer Lett 2009, 282 (2), 125-136.
# SCC-61 cell line (HNSCC) = experiment: MTT cytotoxicity IC50 assay, SCC-61; type: cell-based, human; conditions: SCC-61, MTT
# Method: as §1, §2
# Ex vivo serum stability = type: in vitro ADME; conditions: human serum, 37° C., after 120 min of tracer synthesis
# Method: The ex vivo serum stability of [^18F]KS1 and [^18F]KS2 were analyzed in human serum samples, following previously published methods (Sai et al., Peptide-based PET imaging of the tumor restricted IL13RA2 biomarker. Oncotarget 2017, 5; Sattiraju et al., IL13RA2 targeted alpha particle therapy against glioblastoma. Journal of Nuclear Medicine 2016, 57 (supplement 2), 634; Wang et al., Evaluation of F-18-labeled amino acid derivatives and [18F]FDG as PET probes in a brain tumor-bearing animal model. Nuclear Medicine and Biology 2005, 32 (4), 367-375). Briefly, radiotracer was added to the human serum sample, and incubated at 37° C. Radioactive serum mixture was injected into the QC-HPLC system at 5 min, 30 min, 1 h, 1.5 h, 2 h, 2.5 h, and 3 h post radiotracer synthesis. Radiolysis through defluorination and/or oxidation of the radiotracers (if any) can be seen as new radiochemical peaks at different retention times (Rt) than the original product peak (Jin et al., A promising F-18 labeled PET radiotracer (-)-[18F]VAT for assessing the VAChT in vivo. Journal of Nuclear Medicine 2015, 56 (supplement 3); Koglin et al., [F-18]BAY 85-8050: A novel tumor specific probe for PET imaging-Preclinical results. Journal of Nuclear Medicine 2010, 51 (supplement 2), 1535; […] et al., Imaging COX-2 expression in cancer using PET/SPECT radioligands: current status and future directions. […]
# [2] = test system: SCC-61 and PC3 cell lines; experiment: DCFDA intracellular ROS detection assay; type: cell-based, human; conditions: 2 mM, 7 h, compared to 100 μM
# Excerpt: For this, we used dichlorofluorescin diacetate (DCFDA) intracellular ROS detection assay kit and followed manufacture recommended protocol (ZHELEV et al., Docosahexaenoic Acid Sensitizes Leukemia Lymphocytes to Barasertib and Everolimus by ROS-dependent Mechanism Without Affecting the Level of ROS and Viability of Normal Lymphocytes. Anticancer Research 2016, 36 (4), 1673-1682). We studied two patient-derived tumor cell lines: SCC-61, […], and PC3, prostate cancer cell line. The maximum allowed mass for a typical clinical PET radiotracer is <100 μM (Schwarz et al., Radiochemistry and radiopharmacology. LIC-Nuclear Medicine and PET/CT: Technology and Techniques 2016, 11, 77), so we chose 10-100 μM as our concentration range for tracer-level assays. The lowest reported pharmacologic dose for ascorbate is 2.0 mM (Levine et al., Vitamin C: a concentration-function approach yields pharmacology and therapeutic discoveries. Adv Nutr 2011, 2 (2), 78-88), so we chose this dose for our pharmacological assays. We chose the ligand incubation times based on the maximum tracer uptake time (˜2 h) for a typical [^18F]-based PET radiotracer injection (Schlyer, PET tracers and radiochemistry. ANNALS-ACADEMY OF MEDICINE SINGAPORE 2004, 33 (2), 146-154).
# Pharmacologic doses of ascorbate generates ROS, including H2O2 and trace amounts of labile iron extracellularly and/or intracellularly (Nauman et al., Systematic Review of Intravenous Ascorbate in Cancer Clinical Trials. Antioxidants (Basel) 2018, 7 (7), 89). We performed the same DCFDA assay with KS1 and ascorbate at pharmacological doses of 2 mM for 7 h in both SCC-61 and PC3 cell lines. ROS production was analyzed and reported (FIG. 11) using the similar measurements as above. Ligand specificity is commonly determined by pretreating the cells with high concentrations of blockers. We used superoxide dismutase (SOD), an enzyme that selectively suppresses accumulation of superoxide peroxide anions (Bielski et al., Chemistry of ascorbic acid radicals. in Ascorbic Acid: Chemistry, Metabolism, and Uses. Chapter 1982, 4, 81-100).
structure (smiles),measurement,setting,value
C#Cc1cccc(Nc2ncnc3cc(OCCOC)c(OCCOC)cc23)c1 [erlotinib],IC50,SCC-61 cells,> 50 µM
O=C1O/C(=C/Cc2ccc(OCCF)cc2)C(O)=C1O [KS2],higher selectivity between the two cell lines compared to ascorbate selectivity,"[1]; Example 4, SCC-61 vs rSCC-61, MitoSOX fluorescence",~10 fold
same,decrease of fluorescent uptake by SOD pretreatment,"[1]; SCC-61 cells, SOD (1.0 mM) for 60 min",~30%
same,IC50,"PC3 cell line; Example 7, 48 h",251 µM
same,IC50,"SCC-61 cell line (HNSCC); Example 7, 48 h",166 µM
O=C1O/C(=C/Cc2ccc(OCC[18F])cc2)C(O)=C1O [[^18F]KS2],intact in serum,Ex vivo serum stability,~80%
"O=C1O[C@H]([C@@H](O)CO)C(O)=C1O [ascorbate, ascorbic acid, reference compound]",fluorescence intensity (ROS generation) at pharmacological dose,[2],"also increased, but not as with KS1"
same,MitoSOX fluorescence in SCC-61 compared to rSCC-61 cells,"[1]; 10.0 μM, 1 h incubation",higher fluorescence
same,IC50,"PC3 cell line; Homo sapiens, PC-3, Example 7, 48 h",1120 µM
same,IC50,"PC3 cell line; Homo sapiens, PC-3, Example 13",1410 µM
same,IC50,"SCC-61 cell line (HNSCC); Homo sapiens, Example 7, 48 h",815 µM
same,IC50,"SCC-61 cell line (HNSCC); Homo sapiens, Example 13",1380 µM
